| melting point [°C] | SMILES |
| --- | --- |
| 78.5 to 82.5 | COc1ccc(C(=O)N(c2ccccc2)c2ccc(OCCCN(C)C)cc2)c(OC)c1 |
| 112 to 114 | COC(=O)CCC(=NOCc1ccc(OCc2nc(-c3ccccc3)oc2C)c(OC)c1)c1ccccc1 |
| 204 to 207 | CC(=O)Oc1ccc(-c2ccc(O)cc2)cc1 |
| 244 to 247 | O=C1Nc2ccc(Cl)c(Cl)c2C1c1ccccc1F (centres undefined) |
| 180 to 181 | COc1ccc2c(c1)c(-c1ccccc1)nc(=S)n2CC1CC1 |
| 73 | COc1ccc(C(=O)Sc2ccccn2)cc1 |
| 161 to 165 | CC(C)(C)OC(=O)N1CCC[C@@H](Nc2nccc(-c3c(-c4cccc(C(N)=O)c4)nc4sccn34)n2)C1 |
| 151 to 152 | CC1(C)Oc2ccsc2C(N2CCCCC2=O)C1O (centres undefined) |
| 186 to 188 | CCCCC(CC(=O)Nc1cc(C(N)=O)ccc1C(C)(C)C)c1ccc(OC)cc1OC (centres undefined) |
| 179 to 180 | COc1ccc(C(=O)O)c(C)c1OC |
| 217 to 219 | COc1ccc2c(c1)C(=NO)C(=O)N2c1ccc(F)cc1 |
| 68 to 70 | CC(C)(C)OC(=O)CCN1CCC(O)(c2ccc(O)cc2CO)CC1 |
| 178 to 179 | Cc1nc(N)c2nc(C)n(CCCNC(=O)C(C)C)c2c1C |
| 180 | CC(C#N)(c1ccc(Cl)c(C(F)(F)F)c1)c1ccc(N)cc1Cl (centres undefined) |
| 149 to 150 | COc1ccc(Cc2cnc(NCCCCc3ncc(Br)cc3C)[nH]c2=O)cc1 |
| 73.9 | N#CC(CCOc1ccc(Br)cc1)c1ccc(Cl)cc1Cl (centres undefined) |
| 253 to 254 | Cn1ncc(C(=O)N2CCC2)c1C(=O)Nc1ccn2nc(-c3cccnc3)nc2c1 |
| 143 to 146 | Nc1nc(Cl)cc(NCCO)n1 |
| 164 to 167 | COC(=O)c1cccc(C(=O)OC)c1S(=O)(=O)NC(=O)Nc1nc(OC)cc(OC)n1 |
| 78 to 79 | Brc1ccc2ccncc2c1 |
| 117 to 123 | CCCn1cc(Cc2ccc(C(=O)NS(=O)(=O)c3ccccc3C)cc2OC)c2cc(CCNC(=O)N3CCOCC3)ccc21 |
| 206 to 208 | Cc1ccc(-c2ccc(C(=O)Nc3ccc4cc(CN5CCCC5)cnc4c3)cc2)cc1 |
| 94 to 95 | CCCCN1C[C@H](CO)[C@@H](O)[C@H](O)C1 |

| melting point [°C] | SMILES |
| --- | --- |
| 140 to 143 | CC(C)(C)OC(=O)NCC(=O)N1CCC[C@H]1C(=O)O |
| 292 | CC1NC(=O)NN=C1c1ccc2c(c1)C(C)(C)C(=O)N2 (centres undefined) |
| 234 to 236 | CC(=O)Nc1c(C(=O)c2ccccc2)[nH]c2cc([N+](=O)[O-])ccc12 |
| 121 to 123 | O=C(Nc1ccccc1)OCCCC(=O)c1ccccc1 |
| 227 | CCCn1c(=O)c2[nH]c(/C=C/c3ccc(OCOC)c(OC)c3)nc2n(CCC)c1=O |
| 151 to 152 | CCC(CC)c1ccc(Cl)c2nc(Nc3ccc(Br)cc3C)n(CCCCO)c12 |
| 81 to 82 | CCOC(=O)c1ccc(OC(=O)CCCC(=O)Oc2ccc(C(=O)OCC)cc2)cc1 |
| 205 to 207 | COc1ccc(Oc2ccc3c(c2)C=C(C(=O)O)C(C(F)(F)F)O3)cc1Cl (centres undefined) |
| 202 to 204 | Cc1noc(C)c1Cn1cc(NC(=O)c2scc(S(C)(=O)=O)c2Cl)cn1 |
| 241 to 245 | CC(C)(C)CN1C(=O)[C@H](CC(=O)O)O[C@@H](c2ccccc2Cl)c2cc(Cl)ccc21 |
| 124 to 130 | CCNC(=O)c1c(C2CC2)nc(CC)n1Cc1ccc2oc(-c3ccccc3NS(=O)(=O)C(F)(F)F)c(Br)c2c1 |
| 66 to 67.5 | COC(=O)NCc1ccc(Br)cc1F |
| 185 | NC(=O)Cc1c(N)cc(Br)cc1OCc1ccccc1 |
| 174 | CCN(CC)C(C)(C)CNC1(c2ccccc2Cl)C(=O)Nc2ccc(Cl)cc21 (centres undefined) |
| 162 to 165 | O=C(CC1CCCC1)Nc1ccc2cccc(O)c2c1 |
| 140 to 143 | COC(=O)c1ccccc1S(=O)(=O)NCC(=O)N[C@@H](Cc1ccccc1)C(=O)O |
| 163 to 164 | CCCOc1nc2ccccc2[nH]1 |
| 142 to 143 | Cc1ccccc1CN1CCC(c2cc(-c3ccc(Cl)cc3)[nH]n2)CC1 |
| 166 to 168 | C[C@]1(COc2ccc(N3CCN(C(=O)NCc4ccc(OC(F)(F)F)cc4)CC3)cc2)Cn2cc([N+](=O)[O-])nc2O1 |
| 108 to 110 | COC(=O)C(C)(C)Cc1ccc2cc(CC(C)(C)C(=O)OC)ccc2c1 |
| 55 to 57 | CCOC(=O)NC(=O)C(F)F |
| 188 | CCCCCCCCCC(=O)c1ccc(OCc2ccc(C=C3SC(=S)NC3=O)cc2)c(CCC)c1O |
| 61 to 63 | C=CCOc1ccccc1OCCOS(C)(=O)=O |

| melting point [°C] | SMILES |
| --- | --- |
| 92 to 94 | COc1cc(CC(=O)NCCCc2ccc(C)c(C)c2)ccc1OCCN1CCNCC1 |
| 151 to 153 | O=C(c1ccccc1)c1nc2ncccc2o1 |
| 80 to 83 | CCCc1c(OCCC(C)(C)C(=O)NCCCCc2cccnc2)ccc(C(C)=O)c1O |
| 54 to 56 | CCOC(=O)CC(O)c1ccc([N+](=O)[O-])c(OC)c1 (centres undefined) |
| 171 to 173 | CN(C)C(=O)Sc1ccc2ncc([N+](=O)[O-])c(-c3ccccc3)c2c1 |
| 175 | CC(C)CN1CCC(CCC(=O)c2cc(Cl)c(N)[nH]c2=O)CC1 |
| 85 to 93 | CCCc1nc2c(N)nc(C)c(C)c2n1CC(C)(C)NS(C)(=O)=O |
| 152 to 154 | C[C@H](Nc1nc(N=[N+]=[N-])nc(Cl)c1-c1c(F)cc(F)cc1F)C(F)(F)F |
| 118 to 119 | CCC(=O)NCc1ccc2ccn(C3CCN(CCc4ccccc4F)CC3)c2c1 |
| 153 to 156 | NC(=O)[C@H]1CN(c2ccc(C3CCOCC3)c(F)c2)C(=O)O1 |
| 51 | COC(=O)c1ccc(CC23CCCCN2C(=O)N(c2cc(Cl)cc(Cl)c2)C3=O)cc1 (centres undefined) |
| 104 | CC(C)CCCC(C)C1CCC2C3CC=C4CC(OCCCCCCI)CCC4(C)C3CCC12C (centres undefined) |
| 295 to 297 | CCOC(=O)c1cn2c3c(c(-c4cc(C)nc(C)c4)c(F)c(F)c3c1=O)OC[C@@H]2C |
| 139 to 140 | CCCOc1ccc(S(=O)(=O)N2CCN(CCOC(C)=O)CC2)cc1-c1nc2c(CCC)cn(CC)c2c(=O)[nH]1 |
| 198 to 200 | Clc1ccc2[nH]c3c(c2c1)CN(CCc1ccccn1)CC3 |
| 155 to 157 | Nc1ccc2oc(-c3ccccc3)nc2c1 |
| 155 to 159 | CNS(=O)(=O)/C=C/c1ccc2c(c1)c(C1CCN(C)CC1)cn2C |
| 142 to 143 | O=C(CNc1c(C(=O)O)[nH]c2cc(F)ccc12)c1ccccc1 |
| 119 | O=C(c1cccc(C(F)(F)F)c1)N1CCc2cc(S(=O)(=O)N3CC(c4ccccc4)NC3=O)ccc21 (centres undefined) |
| 120 to 122 | CCCc1c(OCCCOc2cccc(N)c2C#N)ccc(C(C)=O)c1O |
| 180 to 184 | Oc1ccc([C@H]2CC[C@H](NCCNc3ccccc3)CC2)cc1 |
| 230 to 231 | O=C1N(Cc2ccccc2)c2cc(Cl)cc(N3CCNCC3)c2S(=O)(=O)N1Cc1cccc(O)c1 |
| 195 to 198 | CCOc1ccccc1C(=O)Nc1ccc(C(=O)N2CCC(F)(F)/C(=C\C(=O)N(C)C)c3ccccc32)cc1 |

| melting point [°C] | SMILES |
| --- | --- |
| 100 | Cc1ccc2cccc(OCc3c(Cl)ccc(S(=O)(=O)N(CCCCCCCC(=O)O)Cc4ccccc4)c3Cl)c2n1 |
| 62 to 63 | CCCc1c(OCCCCCC#N)ccc(C(=O)c2ccccc2O)c1O |
| 167 to 168 | N#CCC(=O)OC(COc1ccc(C(=O)c2ccccc2)c(O)c1)COc1ccc(C(=O)c2ccccc2)c(O)c1 |
| 65 to 66 | CCCCCCS(=O)(=O)c1c(O)cc(C)oc1=O |
| 106 to 107 | OCCCc1cn(-c2ccc(C(F)(F)F)cn2)nc1C1CCCCC1 |
| 265 to 266 | Cc1cc(C)c([N+](=O)[O-])c(C)c1-c1n[nH]c2c(C#N)c(C(C)(C)C)nn12 |
| 79 | O=C(Cl)Cc1ccccc1Br |
| 279 to 280 | Cc1cc(C=CC#N)cc(Oc2[nH]c(=O)[nH]c(=O)c2C(C)C)c1 |
| 117 to 119 | CC(C)(C)c1cc(OCc2ccccc2C#N)cc(C(C)(C)C)c1O |
| 116 to 119 | O=c1cc(-c2ccccc2)oc2cc(OCC(O)CNCCCCc3cccnc3)ccc12 (centres undefined) |
| 127 to 129 | CCCCCCCCCCCCCCCc1cccc(OCC)c1C1NC(=O)NC(C)=C1C(=O)OC (centres undefined) |
| 120 to 122 | COc1ccc(C(=Cc2cc(OC)c(OC)cc2[N+](=O)[O-])C(=O)N2CCCC2C(=O)O)cc1 (centres undefined) |
| 92 to 94 | COC(=O)c1cccc([N+](=O)[O-])c1NC(=O)OC(C)(C)C |
| 217 to 218 | CCCc1cc2c(=O)n3cc(C#N)ccc3nc2s1 |
| 164 to 165 | Cc1cc(C#Cc2cn(-c3ncccn3)c(C)n2)ccn1 |
| 52 | Cc1c(F)c(F)nc(-c2ccc(C(F)(F)F)cc2)c1F |
| 170 to 171 | CNC(=O)C(Sc1nc2cc(Cl)ccc2s1)c1ccccc1 (centres undefined) |
| 180 to 181 | COc1cc(C)nc(NC(=O)NS(=O)(=O)c2csc3ccccc23)n1 |
| 149 to 151 | CC(=O)OC1CSC(Oc2cccc3oc(C)nc23)C(OC(C)=O)C1OC(C)=O (centres undefined) |
| 162 to 163 | COCC1=C(C(=O)OC)C(c2ccc(Br)cc2)C(C(=O)OC)=C(COC)N1 |
| 102 to 103 | COc1ccccc1-c1cc(C2CCN(Cc3ccc(Cl)cc3)CC2)n[nH]1 |
| 150 to 153 | CC(C)C1(C)N=C(c2ncccc2C(=O)O)N(C#N)C1=O (centres undefined) |
| 114 to 115 | CC(=O)N=C(OC(C)=O)N1CCSC1c1ccccc1OCCN1CCN(c2cccc(F)c2)CC1 (centres undefined) |

| SMILES | melting point [°C] |
| --- | --- |
| CCOC(=O)C(C#N)=NOC(=O)OCC(Cl)(Cl)Cl | 51 to 53 |
| CCCCNC(=O)Nc1ccc2c(c1Cl)C(c1ccccc1F)=NCC(=O)N2C | 196 to 198 |
| CN(O)C(=O)Nc1ccc([N+](=O)[O-])c(C(F)(F)F)c1 | 129 to 130 |
| CC1=C(c2ccc(CC(C)NCC(O)c3cccc(Cl)c3)cc2)CCC(=O)N1 (centres undefined) | 103 to 106 |
| N#C[C@@H]1CCC[C@H]2OC[C@@H](c3ccccc3)N12 | 81 |
| CCOCC(=O)Nc1ccc(OC(=O)NC)cc1C | 118 to 121 |
| CCCCCCC(C)(C)c1cc(O)c(C2=C(CCO)CCC(C)C2)c(O)c1 (centres undefined) | 83 to 86 |

Reference: a melting point compilation (Tetko et al.; mined from patent text by program, amines drawn as free bases though some values may be those of a salt)
